Results taken from patent publication US20060110767A1, “Genotyping assay to predict cytochrome P4503A5 exression” (priority 2001, published 2006).
Where two headings read alike, the source gives them in different places.

What was measured:
CYP3A = settings: cited from earlier work
CYP3A5 [1] = molecular target: T1, CYP3A5 (Homo sapiens, UniProt P20815); settings: cited from earlier work
CYP3A4 [2] = molecular target: T2, CYP3A4 (Homo sapiens, UniProt P08684); settings: cited from earlier work
CYP3A5 [3] = molecular target: T1, CYP3A5; settings: cited from earlier work; remark: listed apart in the source
CYP4503A enzymes = settings: result in words (Wandel et al.); cited from earlier work
CYP3A7 = CYP3A7 (Homo sapiens, UniProt P24462); settings: cited from earlier work
CYP4503A5 = CYP4503A5 (Homo sapiens, UniProt P20815); settings: cited from earlier work
CYP3A4 [4] = molecular target: T2, CYP3A4; settings: pH 7.4
Protocol: (§1) Midazolam, ^15N3-midazolam, 1′-OH MDZ and 4-OH MDZ were provided by Roche Laboratories. All incubations were performed in duplicate in solutions containing 0.1 M potassium phosphate (pH 7.4) and 20 to 100 μg human liver microsomes or 50 to 100 μg intestinal homogenates or 10 pmol of recombinant CYP3A4 or CYP3A5 (Gentest). Midazolam (final concentration, 8 μM) was added to the diluted tissue preparations, and the mixtures were preincubated at 37° C. for 5 min. We added NADPH (final concentration, 1 mM) to initiate the reaction. Incubation of human liver microsomes lasted for 2 min; incubation of recombinant CYP3A and intestinal samples lasted for 4 min. Reactions were terminated by the addition of 1 mL of ice-cold 0.1 M Na2CO3, pH ˜11. We used NCI GC-MS to measure the quantities of extracted 1′-OH MDZ and 4-OH MDZ (ref. 14). Reaction velocities and product ratios are presented as mean±SD. Statistical comparisons of mean data for different genotypes were performed by using a 2-sided, unpaired t test with unequal variances

CYP3A5 [5] = molecular target: T1, CYP3A5; settings: pH 7.4
Protocol: as §1

[6] = result in words (Wrighton et al.; Gillam et al.)

T2 sequence (P08684 whole entry): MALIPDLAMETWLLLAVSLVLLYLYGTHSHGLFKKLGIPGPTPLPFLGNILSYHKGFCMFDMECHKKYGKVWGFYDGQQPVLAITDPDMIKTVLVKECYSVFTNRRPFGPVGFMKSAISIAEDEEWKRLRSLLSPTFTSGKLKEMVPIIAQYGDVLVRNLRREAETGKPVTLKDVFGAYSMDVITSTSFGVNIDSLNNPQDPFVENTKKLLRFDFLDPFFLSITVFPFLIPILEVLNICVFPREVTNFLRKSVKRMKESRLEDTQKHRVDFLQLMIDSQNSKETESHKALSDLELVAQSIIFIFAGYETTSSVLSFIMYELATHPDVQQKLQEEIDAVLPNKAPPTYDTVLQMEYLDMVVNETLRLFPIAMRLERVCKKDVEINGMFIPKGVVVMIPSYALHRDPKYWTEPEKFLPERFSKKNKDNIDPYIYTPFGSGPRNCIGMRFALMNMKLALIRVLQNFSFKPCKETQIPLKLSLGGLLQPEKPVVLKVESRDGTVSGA
CYP3A7, sequence (P24462 whole entry): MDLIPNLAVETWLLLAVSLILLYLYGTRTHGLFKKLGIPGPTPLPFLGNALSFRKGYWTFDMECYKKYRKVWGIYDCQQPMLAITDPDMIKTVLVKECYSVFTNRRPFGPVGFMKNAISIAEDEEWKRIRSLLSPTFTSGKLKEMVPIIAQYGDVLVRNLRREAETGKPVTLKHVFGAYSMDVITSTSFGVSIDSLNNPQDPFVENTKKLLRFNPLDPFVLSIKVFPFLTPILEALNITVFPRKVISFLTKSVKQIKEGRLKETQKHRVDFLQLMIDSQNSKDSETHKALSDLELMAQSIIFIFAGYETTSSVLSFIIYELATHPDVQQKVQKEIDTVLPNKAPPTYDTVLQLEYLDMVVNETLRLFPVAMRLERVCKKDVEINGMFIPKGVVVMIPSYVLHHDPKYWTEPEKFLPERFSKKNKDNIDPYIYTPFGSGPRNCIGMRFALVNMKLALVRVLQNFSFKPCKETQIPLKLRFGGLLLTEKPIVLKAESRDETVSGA
T1 sequence (P20815 whole entry): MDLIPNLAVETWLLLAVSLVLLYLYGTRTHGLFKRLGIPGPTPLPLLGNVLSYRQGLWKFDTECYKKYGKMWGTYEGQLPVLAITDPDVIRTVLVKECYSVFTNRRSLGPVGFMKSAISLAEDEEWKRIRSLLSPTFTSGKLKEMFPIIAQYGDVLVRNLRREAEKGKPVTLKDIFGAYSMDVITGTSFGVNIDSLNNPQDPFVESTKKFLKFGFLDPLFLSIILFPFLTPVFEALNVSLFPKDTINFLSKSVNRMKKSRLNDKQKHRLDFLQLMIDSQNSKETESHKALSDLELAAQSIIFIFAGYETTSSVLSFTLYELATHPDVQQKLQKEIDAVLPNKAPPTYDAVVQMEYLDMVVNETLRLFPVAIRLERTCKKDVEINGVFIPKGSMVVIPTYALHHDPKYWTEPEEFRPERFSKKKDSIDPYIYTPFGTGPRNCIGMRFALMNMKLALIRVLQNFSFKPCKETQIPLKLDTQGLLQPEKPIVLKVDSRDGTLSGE
CYP4503A5, sequence (P20815 whole entry): as above

## COc1ccc2c(c1)[C@]13CCCC[C@@H]1[C@H](C2)N(C)CC3 [Dextromethorphan]
CYP3A
  Catalytic activity in human liver microsomes adult (%): 100%
  Catalytic activity in human liver microsomes fetus (%): 30%

## CC(=O)[C@H]1CC[C@H]2[C@@H]3CCC4=CC(=O)CC[C@]4(C)[C@H]3CC[C@]12C [Progesterone]
CYP3A5 [1]; 6β-hydroxylation
  CYP isoforms expressed in cells 3A5: ++
CYP3A4 [2]
  CYP isoforms expressed in cells 3A4: +++

## CCOc1ccc2c3c1O[C@H]1[C@@H](O)C=C[C@H]4[C@@H](C2)N(C)CC[C@@]341 [Ethylmorphine]
CYP3A; adult, relative to adult rate = 100%
  Catalytic activity in human liver microsomes adult (%): 100%
CYP3A; fetus, relative to adult rate = 100%
  Catalytic activity in human liver microsomes fetus (%): 100%
CYP3A5 [1]
  CYP isoforms expressed in cells 3A5: ++
CYP3A4 [2]
  CYP isoforms expressed in cells 3A4: +
CYP3A5 [3]; [6]
  CYP3A5 catalytic activity towards substrate: considerable catalytic activity

## CCOC(=O)C1=C(C)NC(C)=C(C(=O)OC)C1c1cccc([N+](=O)[O-])c1 (centres unmarked) [nitrendipine]
CYP4503A enzymes
  effect on liver microsomal hydroxylation of midazolam: inhibits

## C#C[C@]1(O)CC[C@H]2[C@@H]3CCc4cc(O)ccc4[C@H]3CC[C@@]21C [17α-ethinyl-estradiol]
CYP3A5 [3]; [6]
  CYP3A5 catalytic activity towards substrate: No CYP3A5 catalytic activity

## NC(=O)N1c2ccccc2C=Cc2ccccc21 [Carbamazepine]
CYP3A; adult, carbamazepine metabolism, result in words
  Catalytic activity in human liver microsomes adult: Present
CYP3A; fetus, CBZ-E formation (?), result in words
  Catalytic activity in human liver microsomes fetus: CBZ-E
CYP3A5 [1]
  CYP isoforms expressed in cells 3A5: ++
CYP3A4 [2]
  CYP isoforms expressed in cells 3A4: +++
CYP3A7
  CYP isoforms expressed in cells 3A7: +

## aflatoxins
CYP3A5 [3]
  CYP3A5 catalytic activity towards substrate: No CYP3A5 catalytic activity

## C[C@]12CC[C@H]3[C@@H](CCC4=CC(=O)CC[C@@]43C)[C@@H]1CC[C@@H]2O [Testosterone]
CYP3A
  Catalytic activity in human liver microsomes newborn (%): 30-40%
CYP3A5 [1]
  CYP isoforms expressed in cells 3A5: ++
CYP3A4 [2]
  CYP isoforms expressed in cells 3A4: +++

## NS(=O)(=O)Cc1noc2ccccc12 [Zonisamide]
CYP3A5 [1]
  CYP isoforms expressed in cells 3A5: +
CYP3A4 [2]
  CYP isoforms expressed in cells 3A4: +++
CYP3A7
  CYP isoforms expressed in cells 3A7: ++

## aflatoxin B1
CYP3A5 [3]
  8,9-epoxidation step (activation step) by CYP3A5: efficiently catalyzes
  rate of 3α-hydroxylation (inactivation step) by CYP3A5 relative to CYP3A4: approximately 1%

## C[C@]12CCC(=O)CC1CC[C@@H]1[C@@H]2CC[C@]2(C)C(=O)CC[C@@H]12 (some centres unmarked) [Androstanedione]
CYP3A5 [1]
  CYP isoforms expressed in cells 3A5: ++
CYP3A4 [2]
  CYP isoforms expressed in cells 3A4: +++
CYP3A7
  CYP isoforms expressed in cells 3A7: ++

## CN1C(=O)CN=C(c2ccccc2)c2cc(Cl)ccc21 [Diazepam]
CYP3A
  Catalytic activity in human liver microsomes Child (%): 140 (3-12 mo) %
  Catalytic activity in human liver microsomes adult (%): 100%
  Catalytic activity in human liver microsomes fetus (%): <5%

## C[C@]12CCC(=O)C=C1CC[C@@H]1[C@@H]2[C@@H](O)C[C@@]2(C)[C@H]1CC[C@]2(O)C(=O)CO [Cortisol]
CYP3A5 [1]
  CYP isoforms expressed in cells 3A5: ++
CYP3A4 [2]
  CYP isoforms expressed in cells 3A4: +++
CYP3A7
  CYP isoforms expressed in cells 3A7: −

## Cc1ncc2n1-c1ccc(Cl)cc1C(c1ccccc1F)=NC2 [Midazolam]
CYP3A5 [1]
  CYP isoforms expressed in cells 3A5: +++
CYP3A5 [3]
  formation rate of 1-hydroxy-midazolam for CYP3A5 versus CYP3A4: considerably higher
  rate of formation of 4-hydroxy-midazolam with CYP3A4 and CYP3A5: similar
CYP4503A5
  alpha- to 4-hydroxylation of midazolam, CYP4503A5 versus CYP4503A3 or CYP4503A4: far greater
  increase of midazolam metabolism with CYP4503A5 expression: 2.7
CYP3A4 [4]
  ratio of 1′-OH MDZ to 4-OH MDZ: 5.5
CYP3A5 [5]
  ratio of 1′-OH MDZ to 4-OH MDZ: 16.1
